From patent publication US9527859B2, “Amidopyridine derivative and use thereof” (Mitsubishi Tanabe Pharma Corporation, priority 2012, dated 2016) come the findings set out here.

For series [1], the system named is production of IL-17 in mouse splenocytes stimulated by recombinant mouse interleukin-23. Nature of the series: Production of IL-17 induced when mouse splenocytes were stimulated by rm-IL-23 (ELISA). The format is cell-based. As to conditions: Splenocyte, inhibition of IL-17 production, rm-IL-23 1 nmol/L, 72 hours. The method, then:
Effect on Production of IL-17 Induced when Mouse Splenocytes were Stimulated by Recombinant Mouse Interleukin-23 (rm-IL-23)
RPMI1640 media (Sigma-Aldrich) were used as a medium, to which 50 units/mL penicillin G potassium/50 μg/mL streptomycin (Gibco) and […] 2-mercaptoethanol (Sigma-Aldrich) were added, and then thereto was added 10% of fetal calf serum (FCS; Cell Culture Technology) which was treated at 56° C. for 30 minutes to be inactivated, and the mixture was used in the Test. The test compound was dissolved in dimethylsulfoxide and then diluted with 10% FCS-containing RPMI1640 medium to a desired concentration to be used. The spleens were aseptically taken out from 6 to 7 week-old male DBA/1J mice (Charles River Japan, Inc.) and a single cell suspension of splenocytes was prepared, which was hemolyzed by hypotonic treatment with a mixed solution of 0.83% aqueous solution of ammonium chloride and Tris-HCl buffer of pH 7.65 (9:1). A cell suspension prepared by using 10% FCS-containing RPMI1640 medium was added to a flat-bottomed 96 well microtestplate (Coaster) at 2×10^5 cells/well. Thereto were added test compounds and rm-IL-23 (R&D systems) were diluted with a medium to 1 to 1,000 nmol/L and 1 nmol/L of the final concentration, respectively, and the mixture was cultured at 37° C., 5% carbon dioxide and 95% air for 72 hours. After completion of the culture, culture supernatant was sampled and production amounts of IL-17 therein were determined by ELISA method. After sampling the supernatant, WST-8 (Seikagaku Corporation) was added at 10 μl/well and cultured at 37° C., 5% carbon dioxide and 95% air for 4 hours. Then, absorbance (O.D.: Optical Density) at 450 nm was measured by a microplate reader and the value was adopted as an index of cell survivability. An inhibition rate was calculated according to the following formula on the basis of an average of production amounts of IL-17 and O.D. values of the well containing a test compound of each concentration. Inhibition (%)=(1−(Average value of well with addition of test compound)/(Average value of well without addition of test compound))×100
Based on the dose-response curve obtained by plotting the inhibition rate in the longitudinal axis and the concentration in the horizontal axis, the concentration of the compound which inhibits the level to 50% of the value of the control group (IC50) (nmol/L) was determined by linear regression analysis.
A general note: An ELISA detects its analyte on a solid surface through an enzyme-linked reagent.

Series [2] addresses T1, hERG current in hERG-expressed HEK 293 cells (Homo sapiens, UniProt Q12809).
T1 construct: host or cells: HEK 293 cells, G418-selected
Nature of the series: Effects on hERG current (whole-cell clamp). The format is cell-based. As to conditions: 1 μM of test compound, tail peak current. The method, then:
Dimethylsulfoxide was used as a vehicle, and hERG-expressed HEK 293 cells (Cytomyx) were used as test cells. Test cells were once cultured and subdivided and were stored under frozen condition in liquid nitrogen. In the study, thawed and subcultured cells having less than 30 of the passage number were used. Test cells were cultured in a carbon dioxide gas incubator BNP-110M (Tabai Espec Corp.) at 37±1° C. and 5.0±0.5% of carbon dioxide concentration. The component of culture medium was basically MEM (Minimum Essential Medium) supplemented with 10 vol % fetal bovine serum (non-activated), 1 mmol/L sodium pyruvate, 0.1 mmol/L non-essential amino acid and 100 U/mL penicillin/100 μg/mL streptomycin. To select gene-expressing cells, 400 μg/mL G418 Sulphate (Invitrogen) was added to the culture medium. […] A manufacturer of the culture solution is Invitrogen Corporation.
As to seeding of cells for measurement, subcultured cells which became confluent were treated with 0.25% trypsin-solution containing 1 mmol/L EDTA (Invitrogen) to remove therefrom, and seeded on dishes overlaid with sterilized collagen-coated cover glass (Iwaki, AGC Techno Glass Co., LTD). The medium was exchanged appropriately, including the day of measurement.
A perfusion method was carried out for an application route. Test cells were perfused (perfusion speed: approximately 4 mL/min) with an external solution containing specified concentrations of test compounds (component of external solution: 137 mmol/L of sodium chloride, 4 mmol/L of potassium chloride, 10 mmol/L of HEPES, 1.8 mmol/L of calcium chloride, 1 mmol/L of magnesium chloride and 10 mmol/L of glucose; adjusted to pH 7.4±0.1 with sodium hydroxide solution). When no effects were observed until 4 minutes after switching to a test compound solution, the next different concentration of the test compound was perfused. When effects were observed, the perfusion was continued until the maximum response was observed. The maximum perfusion time for lower concentrations of test compound was set for 10 minutes even when effects were observed. The data were obtained from one experiment or more and the cells which were gently incubated in a carbon dioxide incubator after seeding and attached to cover glasses were used for the measurement.
A whole-cell clamping method was applied to the measurement. Test cells were perfused (perfusion speed: approximately 4 mL/min) with an external solution (component of external solution: 137 mmol/L of sodium chloride, 4 mmol/L of potassium chloride, 10 mmol/L of HEPES, 1.8 mmol/L of calcium chloride, 1 mmol/L of magnesium chloride and 10 mmol/L of glucose; adjusted to pH 7.4±0.1 with sodium hydroxide solution). A glass electrode with a resistance of 2 to 6 MΩ, filled with an internal solution (component: 130 mmol/L of potassium chloride, 1 mmol/L of magnesium chloride, 5 mmol/L of EGTA, 10 mmol/L of HEPES and 5 mmol/L of ATP, adjusted to pH 7.2±0.1 with potassium hydroxide solution) was used. After rupturing cell membrane with glass electrode, the cell membrane voltage was held at −80 mV by using patch clamp amplifier (EPC8, HEKA) via a patch clamp software (pCLAMP9 [Axon CNS], Molecular Devices). As illustrated below, a test pulse of +20 mV for 1.5 seconds and −40 mV for 1.5 seconds was given once every 15 seconds. One minute or more after obtaining 500 pA or higher peak value of the stable tail currents, test compounds were applied. Test cells and the cell-seeded cover glass were changed every treatment. Temperature of the fluid in a perfusion fluid tank was 24±2° C.
The obtained current was recorded on a computer by using a patch clamp software via a patch clamp amplifier. An evaluation item was a tail peak current.
A tail peak current was analyzed using analyzing software (Clampfit 9 [Axon CNS], MolecularDevices). […]
Background: The hERG channel carries a current that helps repolarise heart muscle cells.

T1 sequence (Q12809 whole entry): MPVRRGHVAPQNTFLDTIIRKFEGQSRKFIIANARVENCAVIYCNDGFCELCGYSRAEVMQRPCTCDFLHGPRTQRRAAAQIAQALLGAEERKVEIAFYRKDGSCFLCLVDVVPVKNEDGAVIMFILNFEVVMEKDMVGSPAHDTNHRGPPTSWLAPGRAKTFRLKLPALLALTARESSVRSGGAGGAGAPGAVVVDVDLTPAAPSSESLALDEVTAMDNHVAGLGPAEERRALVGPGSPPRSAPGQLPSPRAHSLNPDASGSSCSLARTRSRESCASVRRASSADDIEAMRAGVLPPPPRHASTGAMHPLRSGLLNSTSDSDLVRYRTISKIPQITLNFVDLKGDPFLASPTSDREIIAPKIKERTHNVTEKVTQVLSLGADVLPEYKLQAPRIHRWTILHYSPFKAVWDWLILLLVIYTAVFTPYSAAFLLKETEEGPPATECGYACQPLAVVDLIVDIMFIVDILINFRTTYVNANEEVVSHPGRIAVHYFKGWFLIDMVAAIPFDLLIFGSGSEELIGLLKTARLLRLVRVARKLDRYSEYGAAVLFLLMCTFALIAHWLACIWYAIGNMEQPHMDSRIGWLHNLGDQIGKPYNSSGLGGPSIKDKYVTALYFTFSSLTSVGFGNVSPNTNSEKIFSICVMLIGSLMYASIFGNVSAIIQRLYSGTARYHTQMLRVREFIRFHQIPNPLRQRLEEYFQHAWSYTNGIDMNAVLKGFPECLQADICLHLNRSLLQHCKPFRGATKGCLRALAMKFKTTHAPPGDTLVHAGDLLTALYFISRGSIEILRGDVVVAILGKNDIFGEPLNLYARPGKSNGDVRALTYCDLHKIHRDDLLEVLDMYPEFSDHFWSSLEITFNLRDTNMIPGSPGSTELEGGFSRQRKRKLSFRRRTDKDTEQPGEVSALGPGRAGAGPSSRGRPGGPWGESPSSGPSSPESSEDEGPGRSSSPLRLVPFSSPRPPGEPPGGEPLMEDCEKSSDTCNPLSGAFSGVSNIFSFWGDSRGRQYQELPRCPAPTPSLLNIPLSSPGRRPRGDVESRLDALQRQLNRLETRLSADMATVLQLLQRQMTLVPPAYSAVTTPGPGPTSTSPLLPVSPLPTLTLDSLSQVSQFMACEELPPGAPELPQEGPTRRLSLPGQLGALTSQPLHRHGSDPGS

As a reminder, the IC50 is the concentration that inhibits the measured activity by half. In the case of `Cc1c(C(=O)Nc2cnc(N3CCC(O)CC3)c(C3CC3)c2)cnn1-c1ccc(Cl)cc1` [Example 39, 1-(4-chlorophenyl)-N-[5-cyclopropyl-6-(4-hydroxypiperidin-1-yl)pyridin-3-yl]-5-methyl-1H-pyrazole-4-carboxamide], the IC50 in series [1] was 136 nM. Moreover, in series [2], the “Inhibition ratio (%)” value is 8.1%.
Taken in the same sequence, the figures for `Cc1cc(NC(=O)c2cnn(-c3ccc(Cl)cc3)c2C)cnc1N1CCC(O)CC1` [Example 43, 1-(4-chlorophenyl)-N-[6-(4-hydroxypiperidin-1-yl)-5-methylpyridin-3-yl]-5-methyl-1H-pyrazole-4-carboxamide] were 102 nM and 9.4%.
Regarding `Cc1c(C(=O)Nc2cnc(N3CCC(O)CC3)c(C#N)c2)cnn1-c1ccc(Cl)cc1` [Example 44, 1-(4-chlorophenyl)-N-[5-cyano-6-(4-hydroxypiperidin-1-yl)pyridin-3-yl]-5-methyl-1H-pyrazole-4-carboxamide], the IC50 in series [1] came out at 74.9 nM. In addition, the “Inhibition ratio (%)” value in series [2] is on record as 2%.
On to `Cc1c(C(=O)Nc2cnc(N3CCC(O)CC3)c(C#N)c2)cnn1-c1ccc(C(F)(F)F)cc1` [Example 45, N-[5-cyano-6-(4-hydroxypiperidin-1-yl)pyridin-3-yl]-5-methyl-1-[4-(trifluoromethyl)phenyl]-1H-pyrazole-4-carboxamide], for which the IC50 in series [1] came out at 72.5 nM. Further, in series [2], the “Inhibition ratio (%)” value is recorded as 4.2%.
Turning to `Cc1cc(NC(=O)c2cnn(-c3ccc(C(F)(F)F)cc3)c2C)cnc1N1CCC(C(C)(C)F)CC1` [Example 47, N-{6-[4-(1-fluoro-1-methylethyl)piperidin-1-yl]-5-methylpyridin-3-yl}-5-methyl-1-[4-(trifluoromethyl)phenyl]-1H-pyrazole-4-carboxamide], the IC50 in series [1] turned out to be 57.9 nM. In addition, in series [2], the “Inhibition ratio (%)” value is given as 32.7%.
For `Cc1cc(NC(=O)c2cnn(-c3ccc(C(F)(F)F)cn3)c2C)cnc1N1CCC(C(C)(C)F)CC1` [Example 49, N-{6-[4-(1-fluoro-1-methylethyl)piperidin-1-yl]-5-methylpyridin-3-yl}-5-methyl-1-[5-(trifluoromethyl)pyridin-2-yl]-1H-pyrazole-4-carboxamide], the IC50 in series [1] is 54.7 nM. The “Inhibition ratio (%)” value in series [2] was 40.5%.
